According to patent publication US9415032B2, “Membrane activated chelators and use in the prevention and treatment of parasitic infection” (THE JOHNS HOPKINS UNIVERSITY, priority 2011, dated 2016):
Read-outs that look alike come from different tables or passages of the source.

Experiments:
Assay type in all cases: cell-based
P. falciparum = experiment: antimalarial cytotoxicity assay ([3H]hypoxanthine), malaria-infected RBC; conditions: Plasmodium falciparum
Procedure: FIG. 2 is set of graphs showing the percentage of P. falciparum killed by MACs of the present invention as a function of drug concentration. Malaria-infected RBC were incubated with DP-b99 (A and B).
FIG. 3 is a graph showing the percentage of P. falciparum killed by MACs of the present invention as a function of drug concentration.
Malaria. Because of the importance of calcium signaling in mammalian cells and recent findings that interference with host cell signaling pathways to subvert the host intracellular milieu may be an important mechanism for the malaria parasite's survival, it was thought that MACs might be toxic to malarial parasite within host cells (i.e. RBCs, hepatocytes). It was investigated whether MAC compounds of the present invention would be able to kill intracellular malaria parasites. An established antimalarial cytotoxicity assay developed in Dr. Theresa Shapiro's laboratory (JHU) (Tetrahedron, 1997; 53(1):37-50) was used with the following modifications: (1) Parasitemia was maintained at 0.1% to 5% by thrice weekly change of medium and replenishment of human erythrocytes; (2) [^3H]hypoxanthine (10-30 Ci/mmol, 1.0 mCi/mL was used in aqueous solution, (Perkin-Elmer NET177001MC), diluted to 25 μCi/mL with medium; and as for the trypanosome experiments (3) the cytotoxicity assays for two MAC compounds of the present invention, DP-b99 and DP-460 (DPharm, Ltd., Rehovot Ill.), included 10 concentrations based on stock solutions (50.0 mg/mL) of each compound that were prepared in sterile HPLC-grade water.

[1] = test system: T. b. brucei 427 or T. b. rhodesiense IL1852; experiment: trypanosome cytotoxicity assay in vitro; conditions: Trypanosoma brucei, by 24 hours, BSF trypanosomes, read-out: effective concentration of drug to kill 50% (EC50) of the parasites
Procedure: (§1) FIG. 1 illustrates the effect of MACs of the present invention on human brain microvascular endothelial cell (BMEC) monolayers interaction with trypanosomes. (A) Human BMEC pretreated with 20 μM DP-b99 impeded parasite transmigration across this barrier (t-5 hours, n=3). […] The data are represented as average TEER or migration±S.E. (n=4; p<0.05). (B) BSF trypanosomes were incubated with DP-b99 or DP460. The average percent (n=4) of parasites killed after 24 hours is plotted against drug concentration.
(§2) African Trypanosomes: The MAC compound of the present invention, DP-b99, as a chelator of Ca^2+ and Zn^2+ was tested to determine whether it would tighten the BBB to trypanosome traversal based on the concepts described above. In pilot parasite/BBB transmigration experiments, bloodstream form Trypanosoma brucei rhodesiense (Tbr) IL1852 were incubated in Transwell inserts containing human brain microvascular endothelial cell (BMEC) monolayers pretreated for 60 minutes with DP-b99, then washed free of drug. In a parallel experiment, human BMEC grown on gold-coated electrode ECIS arrays, were similarly treated with the MAC compound. When compared to the untreated control group, T. b. rhodesiense transmigration across a human BMEC barrier was impeded 60% after 5 hours incubation (FIG. 1A). […]

[2] = test system: human brain microvascular endothelial cell (BMEC) monolayers; experiment: ECIS transendothelial electrical resistance (TEER) of human BMEC during infection; conditions: BMEC pretreated with 20 μM DP-b99
Procedure: as §1, §2

[3] = test system: bloodstream form Trypanosoma brucei rhodesiense (Tbr) IL1852 transmigration across human BMEC barrier; experiment: parasite/BBB transmigration across human BMEC monolayers in Transwell inserts; conditions: BMEC pretreated 60 minutes with 20 μM DP-b99, washed free of drug; after 5 hours incubation
Procedure: as §1, §2

[4] = pilot experiments, read-out: concentration range found to kill P. falciparum

| SMILES | EC50 (P. falciparum; R^2=0.995 (FIG. 3), read-out: EC50, P. falciparum killed) | EC50 (P. falciparum; [4]) | EC50 [1] | barrier tightness of human BMEC during the infection (ECIS TEER) [2] | T. b. rhodesiense transmigration across a human BMEC barrier impeded, compared to untreated control [3] |
| --- | --- | --- | --- | --- | --- |
| CCCCCCCCCCCCOCCOC(=O)CN(CC(=O)O)c1ccccc1OCCOc1ccccc1N(CC(=O)O)CC(=O)OCCOCCCCCCCCCCCC [DP-460] | 28 µM | 21 to 28 µM | ~39 µM | – | – |
| CCCCCCCCOCCOC(=O)CN(CC(=O)O)c1ccccc1OCCOc1ccccc1N(CC(=O)O)CC(=O)OCCOCCCCCCCC [DP-b99] | – | 21 to 28 µM | ~87 µM | maintained a tighter barrier | 60% |
